From ChEMBL document CHEMBL1201862, “PubChem BioAssay data set” (2004)
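Each compound was tested at five concentrations against cells in 96-well plates for 48 hours. GI50: concentration for 50% inhibition of growth.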 Activity calls are given as the source filed them. Cut-off read from the data, not from the text of the source: active = GI50 up to about 1.1 µM and inactive = higher.

Tests used:
Test in all cases: NCI-60 cell line screen, 48 h
HOP-62 = system: HOP-62
HOP-92 = system: HOP-92
NCI/ADR-RES = system: NCI/ADR-RES
SK-MEL-5 = system: SK-MEL-5
COLO 205 = system: COLO 205
M14 = system: M14
OVCAR-4 = system: OVCAR-4
SK-MEL-2 = system: SK-MEL-2
OVCAR-5 = system: OVCAR-5
TK-10 = system: TK-10
MOLT-4 = system: MOLT-4
MCF7 = system: MCF7
MDA-MB-231 = system: MDA-MB-231
CAKI-1 = system: CAKI-1
UACC-62 = system: UACC-62
BT-549 = system: BT-549
Malme-3M = system: Malme-3M
RXF 393 = system: RXF 393
SF-539 = system: SF-539
HL-60 = system: HL-60

Measured: GI50

COC(=O)C(C)(C)NC(=O)C(Cc1ccccc1)Nc1ncnc2c1ncn2-c1ccc(OC)cc1 (centres undefined)
inactive: HOP-62 35.2 µM | HOP-92 22.8 µM | NCI/ADR-RES 31.3 µM | SK-MEL-5 24.8 µM | COLO 205 17.7 µM | M14 42.7 µM | OVCAR-4 12.7 µM | SK-MEL-2 37.5 µM | OVCAR-5 42.2 µM | TK-10 > 100 µM | MOLT-4 > 10 µM | MCF7 23 µM | MDA-MB-231 28.6 µM | CAKI-1 32.7 µM | UACC-62 39.1 µM | BT-549 40.9 µM

Nc1nc(O)c2c(n1)NCN(c1ccc(S(N)(=O)=O)cc1)C2
inactive: HOP-62 71 µM | HOP-92 > 100 µM | Malme-3M > 100 µM | NCI/ADR-RES > 100 µM | SK-MEL-5 > 100 µM | COLO 205 > 100 µM | M14 > 100 µM | OVCAR-4 > 100 µM | SK-MEL-2 > 100 µM | OVCAR-5 > 100 µM | TK-10 > 100 µM | MOLT-4 > 100 µM | MCF7 > 100 µM | MDA-MB-231 > 100 µM | CAKI-1 > 100 µM | UACC-62 > 100 µM | BT-549 > 100 µM

C=C[C@@H]1C[C@]2(C(=O)OC)Cc3nc4ccccc4nc3CC(C(=O)OC)=C2O1
inactive: HOP-62 > 100 µM | Malme-3M > 100 µM | NCI/ADR-RES > 100 µM | RXF 393 > 100 µM | SK-MEL-5 78.9 µM | COLO 205 35.2 µM | M14 80.7 µM | OVCAR-4 > 100 µM | SK-MEL-2 > 100 µM | SF-539 > 100 µM | OVCAR-5 > 100 µM | TK-10 > 100 µM | MOLT-4 42.5 µM | MCF7 40.6 µM | MDA-MB-231 92.9 µM | CAKI-1 > 100 µM | UACC-62 > 100 µM | HL-60 80.5 µM | BT-549 57.1 µM

COc1ccc(N2C=Nn3c(nc4sc5c(c4c3=O)CCCC5)C2)cc1
inactive: HOP-62 3.09 µM | HOP-92 12.2 µM | Malme-3M 18.1 µM | NCI/ADR-RES > 100 µM | RXF 393 15.4 µM | SK-MEL-5 > 100 µM | COLO 205 > 100 µM | M14 32.5 µM | OVCAR-4 > 100 µM | SK-MEL-2 21.3 µM | OVCAR-5 32.4 µM | TK-10 77.1 µM | MOLT-4 > 100 µM | MCF7 > 100 µM | MDA-MB-231 6.37 µM | CAKI-1 40.4 µM | UACC-62 12.2 µM | BT-549 20.7 µM

O=CNc1ncn[nH]1
inactive: HOP-62 > 100 µM | Malme-3M > 100 µM | NCI/ADR-RES > 100 µM | RXF 393 > 100 µM | SK-MEL-5 > 100 µM | COLO 205 > 100 µM | M14 > 100 µM | OVCAR-4 > 100 µM | SK-MEL-2 > 100 µM | SF-539 > 100 µM | OVCAR-5 > 100 µM | TK-10 > 100 µM | MOLT-4 > 100 µM | MCF7 > 100 µM | MDA-MB-231 > 100 µM | CAKI-1 > 100 µM | UACC-62 > 100 µM | HL-60 > 100 µM | BT-549 > 100 µM

Oc1ccc(-c2nc3ccc(F)cc3s2)cc1
inactive: Malme-3M 18.5 µM | NCI/ADR-RES 21.1 µM | RXF 393 25.3 µM | SK-MEL-5 18 µM | COLO 205 16.2 µM | M14 20.4 µM | OVCAR-4 23 µM | SK-MEL-2 19.1 µM | SF-539 17.8 µM | OVCAR-5 21.7 µM | TK-10 16 µM | MOLT-4 27 µM | MCF7 17.5 µM | MDA-MB-231 20.8 µM | CAKI-1 19.7 µM | UACC-62 17.6 µM | HL-60 22.4 µM | BT-549 18.1 µM

C[n+]1c(/C=C/c2ccc(/C=N/NC(=O)c3ccc(C(=O)N/N=C/c4ccc(/C=C/c5cn6ccccc6[n+]5C)cc4)cc3)cc2)cn2ccccc21
inactive: HOP-62 > 100 µM | HOP-92 > 100 µM | Malme-3M > 100 µM | NCI/ADR-RES > 100 µM | SK-MEL-5 1.89 µM | COLO 205 98.4 µM | M14 > 100 µM | SF-539 > 100 µM | OVCAR-5 > 100 µM | TK-10 > 100 µM | MOLT-4 30.9 µM | MCF7 > 100 µM | MDA-MB-231 > 100 µM | CAKI-1 > 100 µM | HL-60 23.4 µM | BT-549 > 100 µM

Cc1ccc(S(=O)(=O)N2CCCSCCN(S(=O)(=O)c3ccc(C)cc3)CCCSCC2)cc1
inactive: HOP-62 > 100 µM | HOP-92 > 100 µM | NCI/ADR-RES > 100 µM | RXF 393 > 100 µM | SK-MEL-5 > 100 µM | COLO 205 > 100 µM | M14 > 100 µM | OVCAR-4 > 100 µM | SK-MEL-2 > 100 µM | SF-539 > 100 µM | OVCAR-5 > 100 µM | TK-10 > 100 µM | MOLT-4 > 100 µM | MCF7 > 100 µM | MDA-MB-231 > 100 µM | UACC-62 > 100 µM | HL-60 > 100 µM | BT-549 > 100 µM

Cc1nc(N)c(N2CCNCC2)c(O)n1
inactive: HOP-62 > 100 µM | HOP-92 > 100 µM | Malme-3M > 100 µM | NCI/ADR-RES > 100 µM | COLO 205 > 100 µM | M14 > 100 µM | SK-MEL-2 > 100 µM | SF-539 > 100 µM | OVCAR-5 > 100 µM | TK-10 > 100 µM | MOLT-4 > 100 µM | MCF7 > 100 µM | MDA-MB-231 > 100 µM | HL-60 > 100 µM | BT-549 > 100 µM

CC(C)=C1C(=O)c2c(Cl)sc(Cl)c2C1=O
inactive: HOP-62 42.4 µM | HOP-92 22.6 µM | Malme-3M 19 µM | NCI/ADR-RES 24 µM | SK-MEL-5 93.3 µM | COLO 205 20.9 µM | M14 19 µM | OVCAR-4 14.5 µM | SK-MEL-2 20 µM | SF-539 22.3 µM | OVCAR-5 > 100 µM | TK-10 32.5 µM | MOLT-4 36.6 µM | MCF7 41.2 µM | MDA-MB-231 27.6 µM | CAKI-1 18.3 µM | UACC-62 19.9 µM | HL-60 31.3 µM | BT-549 22 µM

O=C(CC(=O)Nc1cccc(C(=O)O)c1)Nc1cccc(C(=O)O)c1
inactive: HOP-62 > 100 µM | HOP-92 > 100 µM | NCI/ADR-RES > 100 µM | SK-MEL-5 > 100 µM | COLO 205 > 100 µM | M14 > 100 µM | OVCAR-4 > 100 µM | SK-MEL-2 > 100 µM | SF-539 > 100 µM | TK-10 > 100 µM | MOLT-4 > 100 µM | MCF7 > 100 µM | MDA-MB-231 > 100 µM | CAKI-1 > 100 µM | UACC-62 96.6 µM | HL-60 > 100 µM | BT-549 > 100 µM

CC[C@@H](/C=C\CCC1(C[C@@H](N)CCC=C(C)C)OCCO1)O[Si](C(C)C)(C(C)C)C(C)C
inactive: HOP-62 22 µM | HOP-92 14.9 µM | NCI/ADR-RES 16.8 µM | RXF 393 19.4 µM | SK-MEL-5 18.1 µM | COLO 205 13.6 µM | M14 18.5 µM | OVCAR-4 19.1 µM | SK-MEL-2 17.3 µM | SF-539 17.7 µM | OVCAR-5 17.2 µM | TK-10 17.1 µM | MOLT-4 17.6 µM | MCF7 16.3 µM | MDA-MB-231 19 µM | CAKI-1 18.8 µM | UACC-62 17.8 µM | HL-60 4.28 µM | BT-549 20.1 µM

CS(=O)(=O)c1ccc(/C=N/NC(N)=S)cc1
inactive: HOP-62 > 100 µM | HOP-92 > 100 µM | Malme-3M > 100 µM | NCI/ADR-RES > 100 µM | RXF 393 > 100 µM | SK-MEL-5 > 100 µM | COLO 205 > 100 µM | M14 > 100 µM | OVCAR-4 > 100 µM | OVCAR-5 > 100 µM | TK-10 > 100 µM | MOLT-4 > 100 µM | MCF7 > 100 µM | MDA-MB-231 > 100 µM | CAKI-1 > 100 µM | UACC-62 > 100 µM | HL-60 > 100 µM | BT-549 > 100 µM

O=C(Nc1nn(C(=O)c2ccc(Cl)cc2)c(=O)s1)c1ccc(Cl)cc1
inactive: HOP-62 > 100 µM | HOP-92 > 100 µM | Malme-3M > 100 µM | NCI/ADR-RES > 100 µM | RXF 393 46.9 µM | SK-MEL-5 > 100 µM | COLO 205 > 100 µM | M14 > 100 µM | OVCAR-4 > 100 µM | OVCAR-5 > 100 µM | TK-10 > 100 µM | MOLT-4 > 100 µM | MCF7 > 100 µM | MDA-MB-231 > 100 µM | CAKI-1 > 100 µM | UACC-62 > 100 µM | HL-60 > 100 µM | BT-549 > 100 µM

CC(=O)C(=NNc1ccc(-n2c(C)nc3ccccc3c2=O)cc1)C(C)=O
inactive: HOP-62 > 100 µM | HOP-92 > 100 µM | NCI/ADR-RES > 100 µM | SK-MEL-5 11.7 µM | COLO 205 > 100 µM | M14 > 100 µM | SK-MEL-2 > 100 µM | SF-539 > 100 µM | OVCAR-5 > 100 µM | TK-10 > 100 µM | MOLT-4 22.9 µM | MCF7 > 100 µM | MDA-MB-231 > 100 µM | CAKI-1 > 100 µM | UACC-62 > 100 µM | HL-60 > 100 µM | BT-549 > 100 µM
